Experimental findings from ChEMBL document CHEMBL4177711, “Synthesis, in vitro and in silico evaluation of novel trans-stilbene analogues as potential COX-2 inhibitors” (Bioorg Med Chem, 2018) are described below.

Each structure is given as a SMILES string. pIC50: −log10 of the molar value.

Broadly, the inhibition is the share of the control response that was lost under treatment. As a reminder, the pIC50 is the negative decadic logarithm of the IC50, by convention in mol/L.

The target of data set [1] is T1, COX1 (Prostaglandin G/H synthase 1) (Ovis aries, UniProt P05979).
T1 sequence (P05979 whole entry): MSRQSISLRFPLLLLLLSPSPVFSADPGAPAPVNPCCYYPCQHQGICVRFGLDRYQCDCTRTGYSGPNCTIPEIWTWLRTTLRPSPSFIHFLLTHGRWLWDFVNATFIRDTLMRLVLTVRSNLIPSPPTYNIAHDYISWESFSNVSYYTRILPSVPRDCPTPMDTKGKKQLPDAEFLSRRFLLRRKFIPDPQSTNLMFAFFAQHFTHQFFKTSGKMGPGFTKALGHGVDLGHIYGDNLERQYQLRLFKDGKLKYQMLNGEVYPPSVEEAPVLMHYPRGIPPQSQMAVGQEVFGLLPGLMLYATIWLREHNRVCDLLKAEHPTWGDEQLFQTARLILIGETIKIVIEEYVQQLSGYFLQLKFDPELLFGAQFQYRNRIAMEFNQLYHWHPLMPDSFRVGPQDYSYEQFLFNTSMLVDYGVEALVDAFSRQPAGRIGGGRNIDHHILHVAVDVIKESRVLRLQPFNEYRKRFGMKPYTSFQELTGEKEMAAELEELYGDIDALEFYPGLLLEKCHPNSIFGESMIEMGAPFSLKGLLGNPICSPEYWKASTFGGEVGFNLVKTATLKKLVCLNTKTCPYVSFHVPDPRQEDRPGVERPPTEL
The data set is described as follows: Inhibition of ovine COX1 assessed as reduction in PGF2alpha level at 100 uM using arachidonic acid as substrate preincubated for 10 mins followed by substrate addition by ELISA relative to control. Conditions: sheep, ovine COX1 enzyme, probe arachidonic acid.

Data set [2] has as its target T2, Prostaglandin G/H synthase 2 (Homo sapiens) (UniProt P35354).
T2 sequence (whole entry): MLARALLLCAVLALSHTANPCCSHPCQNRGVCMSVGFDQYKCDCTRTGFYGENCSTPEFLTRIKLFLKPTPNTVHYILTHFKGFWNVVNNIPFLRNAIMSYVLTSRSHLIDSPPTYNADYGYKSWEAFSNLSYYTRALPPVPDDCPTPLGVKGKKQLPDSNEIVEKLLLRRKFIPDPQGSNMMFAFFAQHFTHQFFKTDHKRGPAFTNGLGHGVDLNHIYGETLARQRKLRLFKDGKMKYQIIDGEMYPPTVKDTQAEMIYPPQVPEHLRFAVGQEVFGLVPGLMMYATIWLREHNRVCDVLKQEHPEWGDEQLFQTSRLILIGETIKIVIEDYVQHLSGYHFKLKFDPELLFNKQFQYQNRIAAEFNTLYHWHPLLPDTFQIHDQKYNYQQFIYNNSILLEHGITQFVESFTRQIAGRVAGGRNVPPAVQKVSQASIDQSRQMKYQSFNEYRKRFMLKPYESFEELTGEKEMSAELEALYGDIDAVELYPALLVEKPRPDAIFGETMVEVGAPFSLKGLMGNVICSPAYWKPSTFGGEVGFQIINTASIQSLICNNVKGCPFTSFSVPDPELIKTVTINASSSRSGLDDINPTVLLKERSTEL
The data set is described as follows: Inhibition of human COX2 assessed as reduction in PGF2alpha level at 100 uM using arachidonic acid as substrate preincubated for 10 mins followed by substrate addition by ELISA relative to control.

In data set [3] the target is T3, Prostaglandin G/H synthase 1 (Ovis aries, UniProt P05979).
T3 sequence (P05979 whole entry): T1 sequence (P05979 whole entry)
The data set is described as follows: Inhibition of ovine COX1 assessed as reduction in PGF2alpha level using arachidonic acid as substrate preincubated for 10 mins followed by substrate addition by ELISA. (In general: In an ELISA, binding on a coated surface is turned into a signal by an enzyme label.)

Data set [4] has as its target T4, Prostaglandin G/H synthase 2 (Homo sapiens, UniProt P35354).
T4 sequence (P35354 whole entry): T2 sequence (whole entry)
The data set is described as follows: Inhibition of human COX2 assessed as reduction in PGF2alpha level using arachidonic acid as substrate preincubated for 10 mins followed by substrate addition by ELISA.

Data set [5] can be described thus: Selectivity index, ratio of IC50 for ovine COX1 to IC50 for human COX2.
Data set [6] deals with T2, Prostaglandin G/H synthase 2 (Homo sapiens). The data set is described as follows: Inhibition of COX2 in human MCF7 cells assessed as reduction in PGE2 level after 72 hrs by ELISA. The format is cell-based.
For data set [7] the target is unchanged. The data set is described as follows: Inhibition of COX2 in human MCF7 cells assessed as reduction in PGE2 level at 6.25 uM after 72 hrs by ELISA relative to control. In kind it is cell-based.
The target is the same in data set [8]. The data set is described as follows: Inhibition of COX2 in human MCF7 cells assessed as reduction in PGE2 level at 12.5 uM after 72 hrs by ELISA relative to control. In kind it is cell-based.
The nature of data set [9]: Solubility of the compound in DMEM culture medium at >12.5 uM. The format is physicochemical.
Data set [10] deals with MCF7. The data set is described as follows: Antiproliferative activity against human MCF7 cells up to 100 uM after 72 hrs by MTT assay relative to control. The format is functional. For orientation: Tetrazolium dyes change colour on reduction, which living cells bring about.
In data set [11] the test system is MCF7. The data set is described as follows: Antiproliferative activity against human MCF7 cells after 72 hrs by MTT assay. Conditions: MCF7, 72 h.

On to `CC(=O)Oc1cccc(/C=C/c2ccc([N+](=O)[O-])cc2[N+](=O)[O-])c1`, for which, in data set [1], the inhibition at 100 µM was 28.3%. In data set [2], the inhibition turned out to be 34.1%.

On to `O=[N+]([O-])c1ccc(/C=C/c2ccc(O)cc2)cc1`, for which, in [1], the inhibition at 100 µM came to 22.2%. Moreover, the inhibition in data set [2] came out at 37.1%.

As to `CC(=O)Oc1ccc(/C=C/c2ccc(OC(C)=O)cc2)cc1`, the inhibition at 100 µM in data set [1] turned out to be 3.16%. Also, the inhibition in data set [2] worked out at 23.4%.

As to `O=[N+]([O-])c1ccc(/C=C/c2ccc(OCc3ccccc3)cc2)cc1`, the inhibition at 100 µM in data set [1] was found to be 3.36%. Further, the inhibition in data set [2] was 15.7%.

Turning to `Oc1ccc(/C=C/c2cc[n+](Cc3ccccc3Cl)cc2)cc1`, in [1], the inhibition at 100 µM turned out to be 1.57%. In addition, the inhibition in data set [2] came out at 10.2%.

Consider `O=[N+]([O-])c1ccc(/C=C/c2cc(O)c(O)c(O)c2)cc1`, for which the pIC50 was 4.76 in data set [3] and 6.55 in data set [4]. For the same compound, the Ratio IC50 in [5] was 62.8. In addition, the inhibition entry is “Dose-dependent effect” in [6], 24.1% in data set [7] and 33.9% in data set [8]. Moreover, in data set [9], the solubility entry is given as “Insoluble”. For the same compound, the Activity in the data set on MCF7 [10] is reported as 30%.

Take `COc1cc(/C=C/c2ccc([N+](=O)[O-])cc2)cc(OC)c1OC`: the pIC50 in data set [3] was 5.57; in [4] it was 5.66. The Ratio IC50 in data set [5] came out at 1.23. In the data set with MCF7 [10], the Activity is reported as 30%.

Regarding `COC(=O)COc1ccc(/C=C/c2ccc([N+](=O)[O-])cc2)cc1`, the inhibition at 100 µM in data set [1] turned out to be 59.6%. Moreover, in data set [2], the inhibition turned out to be 66.3%. The pIC50 in data set [3] is 4.39; in data set [4] it was 5.13. For the same compound, the Ratio IC50 in [5] is 4.13.

On to `Oc1ccc(/C=C/c2ccc(Br)cc2)cc1`, for which the inhibition at 100 µM in data set [1] turned out to be 6.8%. The inhibition in data set [2] stood at 14.3%.

In the case of `CCOc1ccc(/C=C/c2ccc(Cl)cc2)cc1`, in [1], the inhibition at 100 µM was 39.2%. The inhibition in [2] turned out to be 12.3%.

The compound `Cc1ccc(-c2cc(C(F)(F)F)nn2-c2ccc(S(N)(=O)=O)cc2)cc1` [CELECOXIB] showed a negative-log IC50 (pIC50) with MCF7 [11] of 4.30.

For `Oc1ccc(/C=C/c2ccncc2)cc1`, the inhibition at 100 µM in data set [1] was 17.3%. Further, the inhibition in data set [2] was 8.88%.

Regarding `Oc1ccccc1/C=C/c1ccncc1`, the inhibition at 100 µM in data set [1] is 9.71%. Also, the inhibition in [2] turned out to be 8.56%.

Turning to `Oc1ccc(/C=C/c2ccc(Cl)cc2)cc1`, the inhibition at 100 µM in data set [1] came to 9.64%. For the same compound, the inhibition in data set [2] amounted to 3.73%.

`CC(=O)Oc1ccc(/C=C/c2ccccc2)cc1`: in data set [1], the inhibition at 100 µM worked out at 20.5%. The inhibition in data set [2] was determined as 39.9%.

`Oc1cccc(/C=C/c2ccncc2)c1`: the inhibition at 100 µM in data set [1] was found to be 23.1%. The inhibition in data set [2] came out at 20.4%.

`CCOc1ccc(/C=C/c2ccccc2)cc1`: in data set [1], the inhibition at 100 µM was determined as 32.3%. In data set [2], the inhibition stood at 40.8%.

Consider `Oc1ccc(/C=C/c2cc[n+](Cc3ccc(Cl)cc3)cc2)cc1`, for which the inhibition at 100 µM in data set [1] came to 15.7%. Moreover, the inhibition in [2] was 5.38%.

Consider `O=[N+]([O-])c1ccc(/C=C/c2ccc(O)cc2)c([N+](=O)[O-])c1`, for which, in [1], the inhibition at 100 µM came to 6.09%. The inhibition in [2] came to 29%.

For `O=[N+]([O-])c1ccc(/C=C/c2ccccc2)cc1`, the inhibition at 100 µM in [1] came to 16.3%. For the same compound, the inhibition in data set [2] turned out to be 35%.

For the compound `Oc1ccc(/C=C/c2ccc(O)cc2)cc1` [TRANS-4,4'-DIHYDROXYSTILBENE], the inhibition at 100 µM in data set [1] came to 4.92%. Moreover, the inhibition in data set [2] amounted to 11.1%.

As for `CCOc1ccc(/C=C/c2ccc([N+](=O)[O-])cc2[N+](=O)[O-])cc1`, the inhibition at 100 µM in data set [1] stood at 14.1%. Moreover, in data set [2], the inhibition was determined as 40.4%.

Take `COC(=O)COc1ccc(/C=C/c2ccc(OCC(=O)OC)cc2)cc1`: in data set [1], the inhibition at 100 µM stood at 28.5%. In data set [2], the inhibition came to 44.5%.

With `CCOc1cccc(/C=C/c2ccc([N+](=O)[O-])cc2)c1`, the inhibition at 100 µM in data set [1] came out at 2.42%. Besides, in data set [2], the inhibition was 23.4%.

As to `CCOc1ccc(/C=C/c2ccc([N+](=O)[O-])cc2)cc1`, the inhibition at 100 µM in data set [1] came to 54.6%. Further, in data set [2], the inhibition is 77.4%. Further, the pIC50 is 4.07 in data set [3] and 5.40 in data set [4]. The Ratio IC50 in data set [5] was 21.2.

As to `COC(=O)COc1ccc(/C=C/c2ccc(Cl)cc2)cc1`, in data set [1], the inhibition at 100 µM is 59.3%. Besides, the inhibition in data set [2] worked out at 71.8%. In addition, the pIC50 in [3] was 4.39; in data set [4] it was 5.12. Moreover, the Ratio IC50 in data set [5] came to 5.45.

For the compound `COc1ccc(/C=C/c2ccc([N+](=O)[O-])cc2)cc1OC`, the pIC50 in data set [3] is 6.18; in data set [4], 5.33. In data set [5], the Ratio IC50 stood at 0.14.

With `CCOc1cccc(/C=C/c2ccc([N+](=O)[O-])cc2[N+](=O)[O-])c1`, the inhibition at 100 µM in [1] stood at 15.4%. Besides, the inhibition in data set [2] amounted to 27.5%.

Take `Oc1ccc(/C=C/c2cc[n+](Cc3cccc(Cl)c3)cc2)cc1`: in data set [1], the inhibition at 100 µM was 11.2%. Also, in [2], the inhibition worked out at 21.9%.
